Test systems include KM12; HCC 2998; OVCAR-5; CAKI-1; OVCAR-4; SK-MEL-28; UO-31; OVCAR-3; EKVX; HCT-15; MDA-N; U-251; NCI-H23; Malme-3M; SF-295; SN12C; NCI-H226; SW-620; IGROV-1; T47D.
What all share (test): inhibition of tumour cell growth, NCI panel, 48 h

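Cultured in 96-well plates, cells were exposed to test compound for 48 hours across five concentrations. At the GI50, growth is halved.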 Calls of active or inactive are those of the source. Rule as the data show it: active = GI50 up to about 1.1 µM and inactive = higher.

Consider `N#Cc1c(-c2ccc(Cl)cc2)c(-c2ccc(Cl)cc2)nn(CCOC(=O)CCC(=O)O)c1=O`, for which the GI50 with KM12 was 0.245 µM (active); with HCC 2998, 0.618 µM (active); in the assay on OVCAR-5 it was 1.27 µM (inactive); in the assay with CAKI-1, 1.83 µM (inactive); in the assay on OVCAR-4 it was 1.45 µM (inactive); in the assay with SK-MEL-28, 5.47 µM (inactive). Further, the GI50 was 1.11 µM (active) with UO-31; 0.361 µM (active) in the assay on OVCAR-3; 2.69 µM (inactive) in the assay with EKVX; 0.532 µM with HCT-15; 0.08 µM (active) in the assay with MDA-N; 0.505 µM (active) in the assay on U-251. Also, the GI50 in the assay on NCI-H23 is 2.16 µM (inactive); in the assay on Malme-3M it was 1.02 µM (active); in the assay on SF-295 it was 0.522 µM (active); in the assay with SN12C, 0.851 µM (active); in the assay with NCI-H226 it was 0.258 µM (active); in the assay on SW-620, 0.995 µM (active). Also, the GI50 in the assay on IGROV-1 is 0.925 µM (active); with T47D, > 32.3 µM (inactive).
In the case of `CCOC(=O)/C(=C\c1ccc(N(C)C)cc1)S(=O)(=O)C(F)(F)C(F)(F)C(F)(F)C(F)(F)F`, the GI50 in the assay on KM12, in the assay with HCC 2998, in the assay on OVCAR-5, in the assay with CAKI-1, in the assay on OVCAR-4 and in the assay with SK-MEL-28 was > 100 µM (inactive) in each case. In addition, the GI50 in the assay with UO-31 is 55.1 µM (inactive); in the assay with OVCAR-3, > 100 µM (inactive); with EKVX, > 100 µM (inactive); in the assay on HCT-15, more than 100 µM; in the assay with MDA-N it was > 100 µM (inactive); in the assay with U-251, > 100 µM (inactive). Moreover, the GI50 in the assay with NCI-H23, with Malme-3M, in the assay with SF-295, in the assay on SN12C, in the assay on NCI-H226 and in the assay with SW-620 was > 100 µM (inactive) each time. Also, the GI50 in the assay with IGROV-1 and in the assay with T47D was > 100 µM (inactive) in each case.
In the case of `S=C1SCN(Cc2ccco2)CN1c1ccc(Br)cc1`, the GI50 was 11.1 µM (inactive) with KM12; 14.5 µM (inactive) in the assay with HCC 2998; 16.8 µM (inactive) in the assay with OVCAR-5; 14.8 µM (inactive) in the assay on CAKI-1; 13.9 µM (inactive) in the assay with OVCAR-4; 17.8 µM (inactive) in the assay with SK-MEL-28. Also, the GI50 in the assay with UO-31 is 22.9 µM (inactive); in the assay with OVCAR-3, 7.76 µM (inactive); in the assay on EKVX, 18.7 µM (inactive); with HCT-15, 8.69 µM; with MDA-N, 16.9 µM (inactive); in the assay with U-251, 21.9 µM (inactive). Further, the GI50 with NCI-H23 was 14.7 µM (inactive); in the assay on Malme-3M, 17.4 µM (inactive); in the assay with SF-295 it was 6.98 µM (inactive); with SN12C, 23.4 µM (inactive); in the assay with NCI-H226 it was 25.2 µM (inactive); in the assay on SW-620, 19.5 µM (inactive). Moreover, the GI50 with IGROV-1 was 16.4 µM (inactive); in the assay with T47D, 20.1 µM (inactive).
As to `COC(=O)C1=C(O)C(C(=O)OC)[C@]2(O)[C@H](C(=O)OC)[C@H]1C[C@@H](c1ccccc1OC)[C@H]2C(=O)OC` (stereo not given in full), the GI50 in the assay on KM12 was 6.14 µM (inactive); in the assay on HCC 2998 it was 10.5 µM (inactive); in the assay with OVCAR-5 it was 6.08 µM (inactive); in the assay with CAKI-1 it was 3.99 µM (inactive); with OVCAR-4 it was 4.95 µM (inactive); with SK-MEL-28 it was 7.87 µM (inactive). Further, the GI50 in the assay on UO-31 is 10 µM (inactive); in the assay with OVCAR-3, 6.04 µM (inactive); with EKVX, 8.07 µM (inactive); in the assay with HCT-15 it was 3.31 µM; with MDA-N, 1.98 µM (inactive); in the assay with U-251 it was 6.56 µM (inactive). Further, the GI50 is 3.52 µM (inactive) with NCI-H23; 2.83 µM (inactive) in the assay on Malme-3M; 6.08 µM (inactive) in the assay with SF-295; 4.68 µM (inactive) with SN12C; 5.4 µM (inactive) with NCI-H226; 4.25 µM (inactive) in the assay on SW-620. For the same compound, the GI50 in the assay with IGROV-1 is 3.33 µM (inactive); with T47D, 10.4 µM (inactive).
Take `CC(CN(C)C)C(C#N)(c1ccccc1)c1ccccc1` (stereo not given): the GI50 with KM12 is > 100 µM (inactive); with HCC 2998, 43.8 µM (inactive); in the assay with OVCAR-5, > 100 µM (inactive); with CAKI-1, > 100 µM (inactive); in the assay on OVCAR-4, > 100 µM (inactive); with SK-MEL-28, 89.1 µM (inactive). Also, the GI50 in the assay with UO-31 was > 100 µM (inactive); in the assay with OVCAR-3, > 100 µM (inactive); in the assay on EKVX, > 100 µM (inactive); in the assay on HCT-15, more than 100 µM; with MDA-N, > 100 µM (inactive); with U-251, > 100 µM (inactive). The GI50 with NCI-H23, in the assay with Malme-3M, with SF-295, in the assay on SN12C, in the assay with NCI-H226 and in the assay on SW-620 was > 100 µM (inactive) each time. Further, the GI50 in the assay on IGROV-1 and in the assay with T47D was > 100 µM (inactive) in each case.
Turning to `CNC(=O)N(CCC#N)CCCN(C(=O)NC)c1ccccc1`, the GI50 in the assay on KM12, in the assay with HCC 2998, in the assay with OVCAR-5, in the assay with CAKI-1, in the assay with OVCAR-4 and in the assay on SK-MEL-28 was > 100 µM (inactive) throughout. Besides, the GI50 in the assay with UO-31 was > 100 µM (inactive); in the assay with OVCAR-3, > 100 µM (inactive); with EKVX it was > 100 µM (inactive); in the assay with HCT-15, more than 100 µM; in the assay with MDA-N, > 100 µM (inactive); in the assay with U-251, > 100 µM (inactive). Moreover, the GI50 in the assay on NCI-H23 was > 100 µM (inactive); with Malme-3M, 51.4 µM (inactive); in the assay on SF-295, > 100 µM (inactive); with SN12C, > 100 µM (inactive); in the assay on NCI-H226, > 100 µM (inactive); with SW-620 it was > 100 µM (inactive). Moreover, the GI50 with IGROV-1 and with T47D was > 100 µM (inactive) throughout.
Consider `CC1=C(C)CC(C#N)(C#N)C(C#N)(C#N)C1`, for which the GI50 in the assay on KM12 was > 10 µM (inactive); in the assay on HCC 2998, > 10 µM (inactive); in the assay on OVCAR-5, > 10 µM (inactive); in the assay on CAKI-1, > 10 µM (inactive); with OVCAR-4, > 8.04 µM (inactive); in the assay with SK-MEL-28, > 10 µM (inactive). Further, the GI50 is > 10 µM (inactive) with UO-31; > 5.52 µM (inactive) in the assay with OVCAR-3; > 10 µM (inactive) in the assay on EKVX; more than 10 µM in the assay with HCT-15; > 4.78 µM (inactive) in the assay with MDA-N; > 10 µM (inactive) with U-251. For the same compound, the GI50 was > 4.37 µM (inactive) in the assay with NCI-H23; > 6.4 µM (inactive) in the assay with Malme-3M; > 10 µM (inactive) in the assay with SF-295; > 9.12 µM (inactive) with SN12C; > 10 µM (inactive) in the assay on NCI-H226; 2.31 µM (inactive) in the assay with SW-620. Moreover, the GI50 in the assay with IGROV-1 was > 3.83 µM (inactive); in the assay with T47D, > 5.71 µM (inactive).
`COc1ccc(C(O)CC(O)(C(F)(F)F)C(F)(F)F)cc1` (stereo not given): the GI50 in the assay with KM12 was 51.3 µM (inactive); with HCC 2998 it was 38 µM (inactive); with OVCAR-5 it was 27.5 µM (inactive); with CAKI-1, 15 µM (inactive); with OVCAR-4, 32.6 µM (inactive); in the assay on SK-MEL-28, 62.7 µM (inactive). For the same compound, the GI50 with UO-31 was 39.8 µM (inactive); in the assay with OVCAR-3, 22.2 µM (inactive); with EKVX it was 31.3 µM (inactive); in the assay on HCT-15 it was 34.8 µM; in the assay with MDA-N, 46.2 µM (inactive); with U-251, 37.4 µM (inactive). For the same compound, the GI50 in the assay with NCI-H23 is 19.5 µM (inactive); in the assay on Malme-3M it was 16.8 µM (inactive); with SF-295 it was 29.6 µM (inactive); with SN12C it was 24.8 µM (inactive); in the assay on NCI-H226, 23.2 µM (inactive); in the assay with SW-620 it was 33 µM (inactive). Besides, the GI50 is 26.8 µM (inactive) with IGROV-1 and 41.8 µM (inactive) in the assay with T47D.
Consider `CN1CN(c2ccccc2)C2(CCN(C(=O)OC(C)(C)C)CC2)C1=O`, for which the GI50 in the assay on KM12, in the assay with HCC 2998, in the assay on OVCAR-5, in the assay with CAKI-1, with OVCAR-4 and with SK-MEL-28 was > 100 µM (inactive) each time. The GI50 is > 100 µM (inactive) in the assay with UO-31; > 100 µM (inactive) in the assay with OVCAR-3; > 100 µM (inactive) in the assay on EKVX; more than 100 µM with HCT-15; > 100 µM (inactive) with MDA-N; > 100 µM (inactive) with U-251. Besides, the GI50 in the assay on NCI-H23, in the assay on Malme-3M, with SF-295, in the assay with SN12C, in the assay with NCI-H226 and in the assay on SW-620 was > 100 µM (inactive) throughout. For the same compound, the GI50 in the assay on IGROV-1 and in the assay on T47D was > 100 µM (inactive) each time.
As for `COC(=O)c1cc2c(cc1O)[C@@H](NC(C)=O)CCc1cc(OC)c(OC)c(OC)c1-2`, the GI50 in the assay with KM12 was 0.0283 µM (active); with HCC 2998 it was 0.0578 µM (active); with OVCAR-5 it was > 10 µM (inactive); in the assay on CAKI-1 it was 0.0993 µM (active); in the assay on OVCAR-4 it was 0.0432 µM (active); with SK-MEL-28 it was 0.0731 µM (active). Moreover, the GI50 with UO-31 was 0.445 µM (active); with OVCAR-3, 0.0518 µM (active); with EKVX, 0.0415 µM (active); in the assay with HCT-15, 0.0461 µM; with MDA-N, 0.0277 µM (active); in the assay with U-251 it was 0.0342 µM (active). In addition, the GI50 is 0.0296 µM (active) in the assay with NCI-H23; 0.0243 µM (active) in the assay on Malme-3M; 0.0385 µM (active) with SF-295; 0.127 µM (active) in the assay on SN12C; 0.023 µM (active) with NCI-H226; 0.108 µM (active) in the assay on SW-620. For the same compound, the GI50 was 0.0627 µM (active) with IGROV-1 and > 10 µM (inactive) with T47D.

The record behind these values is ChEMBL document CHEMBL1201862, “PubChem BioAssay data set” (2004).
